In article PMC8750630, “Novel Molecular Targets for Hepatocellular Carcinoma” (Cancers, 2021):

Tested on: CD8+ T cells
Assay: pMHC multimer staining of PBMCs for epitope-specific CD8+ T cells
Format: cell-based, human
Conditions: HLA-A*02:01 multimers, PBMCs from 4 HCC patients and 3 healthy donors, average
Procedure: pMHC complexes were generated by combining purified disulfide-stabilized HLA A*0201 monomer (100 μg/mL) with 100 μM peptide for 30 min in PBS at room temperature. Then, pMHC complexes were centrifuged for 5 min at 3300× g to sediment any aggregated MHC molecules. For each 100 μL pMHC, 9.02 μL (0.2 mg/mL stock, SA-PE (BioLegend, 405204), SA-APC (BioLegend, 405207), SA-PE/Cy7 (BioLegend, 405206), SA-PE-CF594 (BD, 562284)), or 18.04 μL (0.1 mg/mL stock, SA-BV421 (BioLegend, 405226), SA-BV650 (BioLegend, 405231) streptavidin conjugate was added and incubated for 30 min on ice. D-biotin (Sigma-Aldrich, St.Louis, MO, USA) was added at a final concentration of 25 μM to block any free binding sites and multimers were stored at −20 °C with 5% glycerol and 0.5% BSA. To stain for T-cell reactivity, PBMCs from 4 HCC patients and 3 healthy donors (2–5 × 10^6) were incubated with a pool of pMHC multimers (3 μL/multimer) and dasatinib (50 nM final, LC laboratories, D-3307) for 15 min at 37 °C. Cells were then stained with antibodies CD3-FITC (1:40, BD, 345763) and CD8-BV480 (1:100, BD, 566121) and LIVE/DEAD Fixable Near-IR (1:1000, Invitrogen, Waltham, MA, USA L10119) for 30 min on ice and washed twice in FACS buffer (PBS + 2% FCS). Gating for CD3^+/CD8^+ T cells was performed on live cells, and binding to pMHCs was assessed by measuring specific fluorescence associated with each individual pMHC. Samples were acquired on a flow cytometer (LSRFortessa, BD, Franklin Lakes, NJ, USA).

In order of rising “percentage of CD8+ T cells reacting with the peptide” value:
1. MLAGNEFQV  0.32%
2. MLAGNAFTA  0.46%
3. LLGPQLVLL  0.55%
4. ALLALTSAV  0.88%
